How the values were obtained:
[1] = system: Plasmodium falciparum; assay: Antimalarial activity against chloroquine-sensitive Plasmodium falciparum 3D7 infected in erythroctes incubated for 72 hrs by SYBR green 1 based spectrofluorometer; format: functional, organism-based, Erythrocyte
[2] = system: Plasmodium falciparum; assay: Antimalarial activity against chloroquine-resistant Plasmodium falciparum K1 infected in erythroctes incubated for 72 hrs by SYBR green 1 based spectrofluorometer; format: functional, organism-based, Erythrocyte
[3] = Plasmodium falciparum, 3D7, Erythrocyte, 72 h
[4] = Plasmodium falciparum, K1, Erythrocyte, 72 h

Row | SMILES | EC50 ([1]; erythrocyte) [nM] | EC50 ([2]; erythrocyte) [nM] | EC50 [1, 3] [nM] | EC50 [2, 4] [nM]
1 | COCC1=C(C(=O)OC)C(c2ccc(Cl)cc2C)C2=C(CC(c3ccc(OC)c(OC)c3)CC2=O)N1 (mixture of isomers) | 2.4 | 4.6 |  | 
2 | CCOC(=O)C1=C(C)NC2=C(C(=O)CC(c3ccc(Cl)c(OC)c3)C2)C1c1ccc(Cl)cc1C (mixture of isomers) | 78.3 | 69.1 |  | 
3 | CCOC(=O)C1=C(C)NC2=C(C(=O)OC(c3ccccc3)C2)C1c1ccccc1Cl (stereo in doubt; 17B) | > 11000 |  |  | 
4 | CCOC(=O)C1=C(C)NC2=C(C(=O)OC(c3ccc(OC)c(OC)c3)C2)C1c1ccccc1Cl (mixture of isomers) | 372 | 323 |  | 
5 | COc1ccc(C2CC3=C(C(=O)O2)C(c2ccccc2Cl)C(C(=O)OCc2ccccc2)=C(C)N3)cc1OC (mixture of isomers) | > 7500 | > 7500 |  | 
6 | CCOC(=O)C1=C(C)NC2=C(C(=O)OC(c3ccc(Cl)cc3)C2)C1c1ccccc1Cl (stereo in doubt; 20B) | 2860 | 2160 |  | 
7 | COCC1=C(C(=O)OC)C(c2ccc(Cl)cc2)C2=C(CC(c3cc(OC)c(OC)c(OC)c3)OC2=O)N1 (stereo in doubt; 56B) | 29 | 42.3 |  | 
8 | CCOC(=O)C1=C(C(=O)OCC)C(c2ccccc2Cl)C2=C(CC(c3ccc(OC)c(OC)c3)OC2=O)N1 (stereo in doubt; 33B) | 119 | 77.6 |  | 
9 | CCOC(=O)C1=C(C)NC2=C(C(=O)CC(c3ccc(Cl)c(OC)c3)C2)C1c1ccccc1Cl (mixture of isomers) | 47.7 | 51.2 |  | 
10 | CCOC(=O)C1=C(C)NC2=C(C(=O)OC(c3cccc(OC)c3)C2)C1c1ccccc1Cl (mixture of isomers) | 2420 | > 6000 |  | 
11 | CCOC(=O)C1=C(C)NC2=C(C(=O)OC(c3ccccc3Cl)C2)C1c1ccccc1Cl (mixture of isomers) | > 6000 | > 6000 |  | 
12 | CCOC(=O)C1=C(C)NC2=C(C(=O)CC(c3ccc(OC)c(OC)c3)C2)C1c1ccc(Cl)cc1 (mixture of isomers) | 16.3 | 18.9 |  | 
13 | CCOC(=O)C1=C(C)NC2=C(C(=O)OC(c3cccc(OC)c3)C2)C1c1ccccc1Cl (stereo in doubt; 25B) | 626 | 363 |  | 
14 | CCOC(=O)C1=C(C)NC2=C(C(=O)OC(c3ccc(Cl)cc3)C2)C1c1ccccc1Cl (mixture of isomers) | > 5500 | > 5500 |  | 
15 | CCOC(=O)C1=C(C)NC2=C(C(=O)OC(c3ccc(OC)cc3)C2)C1c1ccccc1Cl (stereo in doubt; 26B) | 2160 | 1960 |  | 
16 | CCOC(=O)C1=C(c2ccccc2)NC2=C(C(=O)CC(c3ccc(OC)c(OC)c3)C2)C1c1ccccc1Cl (stereo in doubt; 35B) | 40.5 | 46.7 |  | 
17 | CCCC1=C(C(=O)OCC)C(c2ccc(Cl)cc2C)C2=C(CC(c3cc(OC)ccc3OC)CC2=O)N1 (mixture of isomers) | 55.1 | 44.4 |  | 
18 | COCC1=C(C(=O)OC)C(c2ccc(Cl)cc2)C2=C(CC(c3cc(OC)c(OC)c(OC)c3)OC2=O)N1 (mixture of isomers) | 30.8 | 43.6 |  | 
19 | OC(c1cc(C(F)(F)F)nc2c(C(F)(F)F)cccc12)C1CCCCN1 (configuration not stated) [MEFLOQUINE] |  |  | 62 | 31
20 | CCOC(=O)C1=C(C)NC2=C(C(=O)OC(c3ccc(OC)c(OC)c3)C2)C1c1ccccc1C (stereo in doubt; 6B) | 38.5 | 59.7 |  | 

Row | SMILES | EC50 ([1]; erythrocyte) [nM] | EC50 ([2]; erythrocyte) [nM] | EC50 [1, 3] [nM] | EC50 [2, 4] [nM]
21 | COC(=O)C1=C(C)NC2=C(C(=O)OC(c3ccc(OC)c(OC)c3)C2)C1c1ccccc1Cl (mixture of isomers) | > 9400 | > 9400 |  | 
22 | CCCC1=C(C(=O)OCC)C(c2ccc(Cl)cc2C)C2=C(CC(c3ccc(Cl)c(OC)c3)CC2=O)N1 (mixture of isomers) | 27.9 | 48.9 |  | 
23 | CCOC(=O)C1=C(C)NC2=C(C(=O)CC(c3cc(OC)c(OC)c(OC)c3)C2)C1c1ccccc1Cl (mixture of isomers) | 3.6 | 4.9 |  | 
24 | COCC1=C(C(=O)OC)C(c2ccc(Cl)cc2C)C2=C(CC(c3ccc(OC)c(OC)c3)OC2=O)N1 (mixture of isomers) | 112 | 81.3 |  | 
25 | CCCC1=C(C(=O)OCC)C(c2ccc(Cl)cc2C)C2=C(CC(c3cc(OC)ccc3OC)CC2=O)N1 (stereo in doubt; 48B) | 37.5 | 46.8 |  | 
26 | CCOC(=O)C1=C(C)NC2=C(C(=O)OC(c3ccc(OC)c(OC)c3)C2)C1c1ccc([N+](=O)[O-])cc1 (stereo in doubt; 13B) | 2710 | 2200 |  | 
27 | CCOC(=O)C1=C(C)NC2=C(C(=O)OC(c3ccc(OC)c(OC)c3)C2)C1c1ccc(C)cc1 (stereo in doubt; 8B) | 638 | 605 |  | 
28 | CCCC1=C(C(=O)OCC)C(c2ccccc2Cl)C2=C(CC(c3ccc(OC)c(OC)c3)OC2=O)N1 (mixture of isomers) | 29 | 15.5 |  | 
29 | CCOC(=O)C1=C(C)NC2=C(C(=O)CC(c3ccc(OC)c(OC)c3)C2)C1c1ccccc1Cl (stereo in doubt; 2B) | 13.5 | 15.7 |  | 
30 | CCOC(=O)C1=C(C)NC2=C(C(=O)CC(c3ccc(OC)c(OC)c3)C2)C1c1ccccc1Cl (mixture of isomers) | 17.1 | 28 |  | 
31 | COc1ccc(C2CC3=C(C(=O)O2)C(c2ccccc2Cl)C(C(=O)OC(C)(C)C)=C(C)N3)cc1OC (mixture of isomers) |  | 2650 |  | 
32 | CCOC(=O)C1=C(C)NC2=C(C(=O)OC(c3ccc(C)cc3)C2)C1c1ccccc1Cl (stereo in doubt; 23B) | > 6000 | 1580 |  | 
33 | CCCC1=C(C(=O)OCC)C(c2ccc(Cl)cc2C)C2=C(CC(c3ccc(OC)c(OC)c3)OC2=O)N1 (mixture of isomers) | 30 | 22 |  | 
34 | CCCC1=C(C(=O)OCC)C(c2ccccc2Cl)C2=C(CC(c3ccc(OC)c(OC)c3)CC2=O)N1 (mixture of isomers) | 2.3 | 3.8 |  | 
35 | CCOC(=O)C1=C(C)NC2=C(C(=O)OC(c3ccc(OC)c(OC)c3)C2)C1c1ccccc1 (mixture of isomers) | 180 | 120 |  | 
36 | CCOC(=O)C1=C(C)NC2=C(C(=O)CC(c3ccc(OC)c(OC)c3)C2)C1c1ccc(Cl)cc1 (stereo in doubt; 36B) | 10.3 | 9.3 |  | 
37 | CCOC(=O)C1=C(C)NC2=C(C(=O)OC(c3ccc(OC)c(OC)c3)C2)C1c1ccc(Br)cc1 (stereo in doubt; 12B) | 59 | 341 |  | 
38 | CCOC(=O)C1=C(C)NC2=C(C(=O)OC(c3ccc(OC)c(OC)c3)C2)C1c1ccc(Br)cc1 (mixture of isomers) | 213 | 634 |  | 
39 | CCOC(=O)C1=C(C)NC2=C(C(=O)OC(c3ccc(Cl)c(OC)c3)C2)C1c1ccc(Cl)cc1C (mixture of isomers) | 80 | 73.2 |  | 
40 | CCOC(=O)C1=C(C)NC2=C(C(=O)OC(c3ccccc3)C2)C1c1ccccc1Cl (mixture of isomers) | > 10000 |  |  | 

Row | SMILES | EC50 ([1]; erythrocyte) [nM] | EC50 ([2]; erythrocyte) [nM] | EC50 [1, 3] [nM] | EC50 [2, 4] [nM]
41 | CCCOC(=O)C1=C(C)NC2=C(C(=O)OC(c3ccc(OC)c(OC)c3)C2)C1c1ccccc1Cl (stereo in doubt; 29B) | 458 | 332 |  | 
42 | CCN(CC)CCCC(C)Nc1ccnc2cc(Cl)ccc12 (configuration not stated) [CHLOROQUINE] |  |  | 48 | 1360
43 | CCOC(=O)C1=C(C)NC2=C(C(=O)OC(c3ccc(OC)c(OC)c3)C2)C1c1ccccc1OC (mixture of isomers) | > 5500 |  |  | 
44 | COc1ccc(C2CC3=C(C(=O)O2)C(c2ccccc2Cl)C(C(=O)OCc2ccccc2)=C(C)N3)cc1OC (stereo in doubt; 31B) | > 9100 | > 9100 |  | 
45 | CCOC(=O)C1=C(C)NC2=C(C(=O)OC(c3ccc(OC)c(OC)c3)C2)C1c1ccccc1 (stereo in doubt; 1B) | 83 | 80 |  | 
46 | CCOC(=O)C1=C(C)NC2=C(C(=O)OC(c3ccc(OC)c(OC)c3)C2)C1c1ccc(Cl)cc1 (stereo in doubt; 5) | 91.8 | 160 |  | 
47 | CCCOC(=O)C1=C(C)NC2=C(C(=O)OC(c3ccc(OC)c(OC)c3)C2)C1c1ccccc1Cl (mixture of isomers) | 1670 | 1630 |  | 
48 | CCOC(=O)C1=C(C)NC2=C(C(=O)OC(c3cccc(C)c3)C2)C1c1ccccc1Cl (stereo in doubt; 22B) | > 6000 | > 6000 |  | 
49 | COc1ccc(C2CC3=C(C(=O)O2)C(c2ccccc2Cl)C(C(=O)OC(C)(C)C)=C(C)N3)cc1OC (stereo in doubt; 30B) |  | 272 |  | 
50 | CCOC(=O)C1=C(C)NC2=C(C(=O)OC(c3ccccc3OC)C2)C1c1ccccc1Cl (stereo in doubt; 24B) | > 5500 | > 5500 |  | 
51 | CCOC(=O)C1=C(C)NC2=C(C(=O)OC(c3ccc(OC)c(OC)c3)C2)C1c1ccc(C)cc1 (mixture of isomers) | 1250 | 1610 |  | 
52 | COc1ccc(C2CC(=O)C3=C(C2)NC(C)=C(C(=O)O)C3c2ccccc2Cl)cc1OC (stereo in doubt; 27B) | > 12000 |  |  | 
53 | CCOC(=O)C1=C(C)NC2=C(C(=O)CC(c3ccc(OC)c(OC)c3)C2)C1c1ccc(Cl)cc1C (mixture of isomers) | 55.1 | 38.5 |  | 
54 | COC(=O)C1=C(C)NC2=C(C(=O)OC(c3ccc(OC)c(OC)c3)C2)C1c1ccccc1Cl (stereo in doubt; 28B) | 798 | 417 |  | 
55 | CCOC(=O)C1=C(C)NC2=C(C(=O)OC(c3ccc(OC)c(OC)c3)C2)C1c1ccc(Cl)cc1 (stereo in doubt; 5B) | 47.6 | 53.8 |  | 
56 | CCOC(=O)C1=C(C)NC2=C(C(=O)OC(c3ccc(OC)c(OC)c3)C2)C1c1ccccc1C (mixture of isomers) | 72.7 | 123 |  | 
57 | CCOC(=O)C1=C(C)NC2=C(C(=O)OC(c3ccc(OC)c(OC)c3)C2)C1c1ccccc1OC (stereo in doubt; 9B) | 2050 | > 5500 |  | 
58 | CCOC(=O)C1=C(c2ccccc2)NC2=C(C(=O)CC(c3ccc(OC)c(OC)c3)C2)C1c1ccccc1Cl (mixture of isomers) | 176 | 92.3 |  | 
59 | CCOC(=O)C1=C(C(=O)OCC)C(c2ccccc2Cl)C2=C(CC(c3ccc(OC)c(OC)c3)OC2=O)N1 (mixture of isomers) | 58.7 | 22.2 |  | 

From ChEMBL document CHEMBL5579840, “Optimization of diastereomeric dihydropyridines as antimalarials” (Eur J Med Chem, 2024)
